Patent publication US6352709B1, “Localized use of nitric oxide-adducts to prevent internal tissue damage” (NitroMed, Inc., priority 1993, dated 2002)

Key:
[1] = test system: balloon-injured rabbit femoral artery; assay: [125I]-S-NO-BSA binding to balloon-injured femoral artery; format: in vivo
Method: Rabbit femoral arteries were isolated and balloon-injured as described in Example 1 and [^125I]-S-NO-BSA applied either directly into the injured artery (local) or injected intraarterially via the opposite femoral artery (systemic). [^125I]-S-NO-BSA binding was determined by quantification of radioactivity after flow was reestablished for a period of 15 minutes. Non-specific [^125I]-S-NO-BSA binding (sham) was determined from uninjured carotid artery harvested simultaneously with femoral arteries. Data are presented as mean +/− SEM per gram of wet tissue weight, and are derived from four animals. *P<0.0.029, local vs. systemic delivery and +/+P<0.05, systemic injured vs. sham.
Preparation of [^125I]-labeled S-NO-BSA and [^111In] labeled platelets: BSA (0.1 mg/ml) was combined with two IODO-BEADS and 0.1 mCi of Na[^125I]. The solution was incubated for 45 minutes and unincorporated Na[^125I] was removed by gel filtration with Sephadex G25 equilibrated with TBS containing 0.1 mg/ml BSA. […] [^111In]-labeling of platelets was performed after the method of Wistow and colleagues.^(17)
(§1) Animal Preparation: All animal preparations were performed within the institutional guidelines of the Brockton/West Roxbury Department of Veteran Affairs Medical Center and Boston University Medical Center, and in accordance with the guiding principles of the American Physiological Society. New Zealand white rabbits (3.5-4.2 kg) of either sex were premedicated with 5 mg/kg intramuscular (IM) xylazine hydrochlolide (Miles Pharmaceuticals, Shawnee Mission, Kans.), and 0.1 mg/kg subcutaneous (SC) atropine sulfate (Lyphomed, Deerfield, Ill.) fifteen minutes prior to the induction of anesthesia. Anesthesia was induced with 40 mg/kg IM ketamine hydrochloride (Fort Dodge Laboratories, Fort Dodge, Ind.) and 5 mg/kg IM acepromazine maleate (Aveco Company, Inc., Fort Dodge, Ind.). Additional doses of ketamine hydrochloride were administered as necessary to maintain anesthesia. For survival studies, 100,000 U penicillin G (Apothecon of Bristol-Myers Squibb, Princeton, N.J.), was administered IM perioperatively. […]

[2] = test system: [^111In]-labeled platelets; assay: [111In]-labeled platelet binding to balloon-injured femoral arteries; format: in vivo, rabbit; details: for adhesion of [^111In]-labelled platelets to injured vessels: local administration 15 minutes, 15 minutes recirculation, n=6
Method: Femoral arteries were isolated and balloon injured as described in Example 1. During paired local administration of polythiolated S-nitroso-albumin and polythiolated albumin, [^111In]-labeled platelets were administered intravenously and allowed to circulate after flow was reestablished in the treated arteries. [^111In]-labeled platelet binding was determined by quantification of radioactivity after flow was re-established for a period of 15 minutes. Non-specific [^111In]-labeled platelet binding (Uninjured Carotid Artery) was determined from uninjured carotid artery harvested with femoral arteries. Data are presented as mean +/− SEM per gram of wet tissue weight and are derived from six animals. *P<0.05, PS-BSA vs. pS-NO-BSA.
as §1, with “perioperatively. The skin over the femoral arteries was next infiltrated with 1% lidocaine (Astra Pharmaceuticals, Inc., Westborough, Mass.) and the common femoral arteries were exposed from the inguinal ligament to the superficial femoral artery.” for “perioperatively.”

[3] = test system: balloon-injured rabbit femoral artery; assay: Neointimal proliferation after balloon injury of femoral artery (morphometry); format: in vivo
Method: Femoral arteries were isolated and balloon injured as described below. pS-BSA or pS-NO-BSA were applied in a paired fashion directly into the arterial lumen for 15 minutes and then blood flow was re-established. […] Neointimal proliferation is reported as the absolute neointimal area in FIG. 5A and as a ratio of neointima/media in FIG. 5B in 4-6 segments from each artery. Data are expressed as mean +/− SEM and are derived from 15 vessels in the BSA and S-NO-BSA groups, 11 vessels in the PS-BSA group, 7 vessels in the PS-NO-BSA and SHAM groups, and 5 in the SNP group. *P<0.05, pS-NO-BSA vs. PS-BSA. +/+P<0.05 Sodium nitroprusside vs. pS-BSA for both FIGS. 5A and 5B.
Animal Preparation: All animal preparations were performed within the institutional guidelines of the Brockton/West Roxbury Department of Veteran Affairs Medical Center and Boston University Medical Center, and in accordance with the guiding principles of the American Physiological Society. New Zealand white rabbits (3.5-4.2 kg) of either sex were premedicated with 5 mg/kg intramuscular (IM) xylazine hydrochlolide (Miles Pharmaceuticals, Shawnee Mission, Kans.), and 0.1 mg/kg subcutaneous (SC) atropine sulfate (Lyphomed, Deerfield, Ill.) fifteen minutes prior to the induction of anesthesia. Anesthesia was induced with 40 mg/kg IM ketamine hydrochloride (Fort Dodge Laboratories, Fort Dodge, Ind.) and 5 mg/kg IM acepromazine maleate (Aveco Company, Inc., Fort Dodge, Ind.). Additional doses of ketamine hydrochloride were administered as necessary to maintain anesthesia. For survival studies, 100,000 U penicillin G (Apothecon of Bristol-Myers Squibb, Princeton, N.J.), was administered IM perioperatively. The skin over the femoral arteries was next infiltrated with 1% lidocaine (Astra Pharmaceuticals, Inc., Westborough, Mass.) and the common femoral arteries were exposed from the inguinal ligament to the superficial femoral artery. Arteries were cleared of connective tissue, side branches were ligated, and the superficial femoral artery was suspended with silk ties. A 1.5-to-2.0 cm length of femoral artery was isolated from the circulation proximally and distally with neurosurgical microaneurysm clips. The superficial femoral-artery was cannulated with a 2F Fogarty balloon catheter (American Edwards Laboratories, Santa Ana, Calif.) that was passed into the isolated segment of femoral artery. The balloon was inflated with sufficient air to generate slight resistance and withdrawn three times. A 20 g angiocath was then inserted in the arteriotomy and 1 ml of 25.8 mg/ml PS-NO-BSA or 49.2 mg/ml S-NO-BSA was administered over 15 minutes. The contralateral femoral artery was prepared identically and an appropriate control (25.8 mglml pS-BSA, 49.2 mg/ml BSA or 0.66 mg/ml sodium nitroprusside) was administered. For binding studies, 0.5 ml of [^125I]-labeled nitrosylated albumin or control was administered. Following administration of the agent, the superficial femoral artery was ligated and flow reestablished. Sham-operated animals underwent surgical exposure and sidebranch ligation, but no balloon injury was performed or local delivery administered. The area of balloon injury was marked by surgical staples in the adjacent muscle fascia. For chronic studies, the incision was closed with subcuticular absorbable suture and the animals allowed to recover. For acute studies, blood was allowed to circulate through the treated areas for 15 minutes prior to vessel harvest. In some experiments, a distant control vessel, the right carotid artery, was isolated and harvested without any other manipulation.
A 7F plastic cannula was inserted into the abdominal aorta and the vessels perfused clear with saline followed by fixation at 100 mm Hg pressure with 10% buffered formalin. The vessels were stored in 10% buffered formalin and the samples paraffin-embedded and microtome-sectioned. […]

[4] = test system: proliferating cell nuclear antigen; assay: PCNA staining of proliferating cells 7 days after balloon injury; format: in vivo, rabbit; details: 7 days after injury
Method: In a separate set of animals, vessels were perfusion-fixed with 10% buffered formalin seven days after injury and processed for analysis of proliferating cells within 12 hours as described above. Sections were stained for proliferating cell nuclear antigen and adjacent sections were stained with hematoxylin and eosin. Five representative sections from each segment were examined. Total nuclei were counted from the hematoxylin and eosin slides and percent PCNA positive cells were defined as the number of PCNA-positive nuclei divided by the total number of nuclei multiplied by 100.

[5] = test system: platelet cGMP; assay: Platelet cGMP in platelet-rich plasma exposed ex vivo to treated vessel rings; format: cell-based, human; details: one-minute exposure of PRP to treated vessel rings, 10 μM isobutylmethylxanthine, n=14
Method: Rabbit femoral arteries were isolated and balloon-injured as described with reference to FIG. 4. After paired local administration of polythiolated S-nitroso-albumin and polythiolated albumin for 15 minutes, the vessels were harvested and divided into 2 mm rings. The rings were then immersed in 100 μl of platelet-rich plasma containing 10 μM 3-isobutyl-1-methylxanthine and were incubated for 1 minute ex-vivo. An equal volume of ice-cold 10% trichloroacetic acid was added to each aliquot and the sample vortexed. Platelet cGMP assay was then performed as described in “Methods.” Data are expressed as mean +/− SEM. *P<0.05.
cGMP analysis: Whole blood was obtained from fasting human volunteers and platelet-rich plasma (PRP) was prepared by centrifugation. Platelet counts were determined using a Coulter counter model ZM (Coulter Diagnostics, Hileah, Fla.). After balloon injury and treatment with pS-NO-BSA or PS-BSA, arterial segments were harvested and 2-mm segments were incubated with 100 μl of PRP containing 10 μM isobutylmethylxanthine. After 1 minute, an equal volume of ice-cold 10% trichloroacetic acid was added to each aliquot and the sample vortexed. Enzyme-linked immunoassay of cGMP was then performed (Cayman Chemical Company, Ann Arbor, Mich.). […]

[6] = test system: vessel cGMP; assay: Vessel tissue cGMP after local treatment of balloon-injured artery; format: in vivo, rabbit; details: treated balloon-injured vessel segments, n=3
Method: cGMP analysis: Whole blood was obtained from fasting human volunteers and platelet-rich plasma (PRP) was prepared by centrifugation. Platelet counts were determined using a Coulter counter model ZM (Coulter Diagnostics, Hileah, Fla.). After balloon injury and treatment with pS-NO-BSA or PS-BSA, arterial segments were harvested and 2-mm segments were incubated with 100 μl of PRP containing 10 μM isobutylmethylxanthine. After 1 minute, an equal volume of ice-cold 10% trichloroacetic acid was added to each aliquot and the sample vortexed. Enzyme-linked immunoassay of cGMP was then performed (Cayman Chemical Company, Ann Arbor, Mich.). Separate 2 mm vessel segments were also assayed for tissue CGMP after treatment with ice-cold 10% trichloroacetic acid and sonication (Heat Systems-Utrasonics, Inc., Plainview, N.Y.).

[7] = 14 days after balloon injury, local delivery 15 minutes
[8] = 14 days after balloon injury, n=7

Substance: [^125I]-S-NO-BSA: [125I]-labeled S-nitroso-albumin used for binding studies
- binding to injured femoral artery, local delivery ([1]; applied directly into injured artery, 15 minutes flow, n=4): 140.4+/−3.9 ×10^3 cpm/gm
- binding to injured femoral artery, systemic delivery ([1]; injected intraarterially via opposite femoral artery, 15 minutes flow, n=4): 5.4+/−0.9 ×10^3 cpm/gm
- increase in binding, local vs systemic delivery ([1]; injured femoral artery): 26 fold

Substance: pS-BSA: thiolated bovine serum albumin, non-nitrosylated control for pS-NO-BSA [reference compound]
- adhesion of [^111In]-labelled platelets to injured vessels [2]: 71.3+/−40.4 ×10^3 cpm/gm
- neointima/media ratio ([3]; 7 days after injury, n=5): 0.068±0.027
- neointimal area ([3]; 7 days after injury, n=5): 0.258+/−0.19 ×10^5 μm^2
- neointima/media ratio [3, 7]: 0.85+/−0.122
- neointimal area [3, 7]: 2.24+/−0.328 ×10^5 μm^2
- percent of proliferating (PCNA positive) cells [4]: 30.1% +/−5.9
- platelet cGMP [5]: 4.11+/−0.9 pmol 10^8 platelets
- vessel cGMP levels [6]: 0.283+/−0.23 pmol/mg protein

Substance: pS-NO-BSA: polythiolated S-nitroso-albumin; thiolated BSA nitrosylated with NaNO2 in HCl
- adhesion of [^111In]-labelled platelets to injured vessels [2]: 16.3+/−6.2 ×10^3 cpm/gm
- reduction of platelet adhesion compared to control ([2]; local administration, injured femoral artery): over four-fold
- neointima/media ratio ([3]; 7 days after injury, n=5): 0.032±0.005
- neointimal area ([3]; 7 days after injury, n=5): 0.124±0.06 ×10^5 μm^2
- neointima/media ratio [3, 7]: 0.196 +/−0.66
- neointimal area [3, 7]: 0.41+/−0.11 ×10^5 μm^2
- reduction of neointima/media ratio vs control [3, 8]: 77%
- reduction of neointimal area vs control [3, 8]: 81%
- percent of proliferating (PCNA positive) cells [4]: 37.8% +/−5.9
- platelet cGMP [5]: 19.9+/−3.3 pmol 10^8 platelets
- vessel cGMP levels [6]: 0.48+/−0.46 pmol/mg protein
